Here are results for eleven molecules from patent publication US20220125051A1, “PRE-HARVEST DESICCATION METHOD” (SYNGENTA CROP PROTECTION AG, priority 2019, published 2022).

Where two headings read alike, the source gives them in different places.

What all share (test): Post-emergence efficacy, Method A
Holding throughout (assay type): in vivo

In assay [1] the test system is Amaranthus palmeri (AMAPA). The settings on record: evaluated after 13 days; for pest or weed control at 500 g/ha: Amaranthus palmeri, post-emergence, 312 h. The gist of the method: (§1)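 Plants grown 14 days in glasshouse (24/16 °C, 14 h light, 65% humidity) were sprayed with compound formulated in IF50. The spray was diluted in 0.25% or 1% Empicol ESC70 plus 1% ammonium sulphate. Damage was scored 13 days later on a 0-100 scale, where 100 is total damage.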

The test system of assay [2] is Chenopodium album (CHEAL). The settings on record: evaluated after 13 days; for pest or weed control at 500 g/ha: Chenopodium album, post-emergence, 312 h. The gist of the method:
as §1

Assay [3] concerns Digitaria sanguinalis (DIGSA). The note with it: evaluated after 13 days; for pest or weed control at 500 g/ha: Digitaria sanguinalis, post-emergence, 312 h. The gist of the method: as §1
Assay [4] concerns Echinochloa crus-galli (ECHCG). The settings on record: evaluated after 13 days; for pest or weed control at 500 g/ha: Echinochloa crus-galli, post-emergence, 312 h. The method, boiled down:
as §1

In a further assay the test system is Eleusine indica (ELEIN). The settings on record: evaluated after 13 days; for pest or weed control at 500 g/ha: Eleusine indica, post-emergence, 312 h. The gist of the method: as §1
In assay [5] the test system is Euphorbia heterophylla (EPHHL). The settings on record: evaluated after 13 days; for pest or weed control at 500 g/ha: Euphorbia heterophylla, post-emergence, 312 h. The method, boiled down: as §1
The subject of assay [6] is Ipomoea hederacea (IPOHE). The settings on record: evaluated after 13 days; for pest or weed control at 500 g/ha: Ipomoea hederacea, post-emergence, 312 h. The gist of the method: as §1
For the next assay, the system named is Lolium perenne (LOLPE). The settings on record: evaluated after 13 days; for pest or weed control at 500 g/ha: Lolium perenne, post-emergence, 312 h. The method, boiled down: as §1
Another assay concerns Setaria faberi (SETFA). The settings on record: evaluated after 13 days; for pest or weed control at 500 g/ha: Setaria faberi, post-emergence, 312 h. The method, boiled down:
as §1

The mark [7] stands for this setting: Application Rate 500 g/Ha, Method A.
[8] abbreviates: Application Rate 500 g/Ha, Method A, read-out: Control of weed species after post-emergence application, AMAPA (100=total damage to plant; 0=no damage to plant).
Where [9] appears, read: Application Rate 500 g/Ha, Method A, read-out: Control of weed species after post-emergence application, CHEAL (100=total damage to plant; 0=no damage to plant).
Setting [10] is: Application Rate 500 g/Ha, Method A, read-out: Control of weed species after post-emergence application, DIGSA (100=total damage to plant; 0=no damage to plant).
The mark [11] stands for this setting: Application Rate 500 g/Ha, Method A, read-out: Control of weed species after post-emergence application, ECHCG (100=total damage to plant; 0=no damage to plant).
Setting [12] is: Application Rate 500 g/Ha, Method A, read-out: Control of weed species after post-emergence application, ELEIN (100=total damage to plant; 0=no damage to plant).
The mark [13] stands for this setting: Application Rate 500 g/Ha, Method A, read-out: Control of weed species after post-emergence application, EPHHL (100=total damage to plant; 0=no damage to plant).
[14] abbreviates: Application Rate 500 g/Ha, Method A, read-out: Control of weed species after post-emergence application, IPOHE (100=total damage to plant; 0=no damage to plant).
Setting [15] is: Application Rate 500 g/Ha, Method A, read-out: Control of weed species after post-emergence application, LOLPE (100=total damage to plant; 0=no damage to plant).
The mark [16] stands for this setting: Application Rate 500 g/Ha, Method A, read-out: Control of weed species after post-emergence application, SETFA (100=total damage to plant; 0=no damage to plant).
The mark [17] stands for this setting: Application rate 500 g/Ha, 100=total damage to plant, 0=no damage to plant, read-out: Control of weed species after post-emergence application, AMAPA.
Where [18] appears, read: Application rate 500 g/Ha, 100=total damage to plant, 0=no damage to plant, read-out: Control of weed species after post-emergence application, CHEAL.
Setting [19] is: Application rate 500 g/Ha, 100=total damage to plant, 0=no damage to plant, read-out: Control of weed species after post-emergence application, DIGSA.
Setting [20] is: Application rate 500 g/Ha, 100=total damage to plant, 0=no damage to plant, read-out: Control of weed species after post-emergence application, ECHCG.
Where [21] appears, read: Application rate 500 g/Ha, 100=total damage to plant, 0=no damage to plant, read-out: Control of weed species after post-emergence application, ELEIN.
Where [22] appears, read: Application rate 500 g/Ha, 100=total damage to plant, 0=no damage to plant, read-out: Control of weed species after post-emergence application, EPHHL.
[23] abbreviates: Application rate 500 g/Ha, 100=total damage to plant, 0=no damage to plant, read-out: Control of weed species after post-emergence application, IPOHE.
The mark [24] stands for this setting: Application rate 500 g/Ha, 100=total damage to plant, 0=no damage to plant, read-out: Control of weed species after post-emergence application, LOLPE.
The mark [25] stands for this setting: Application rate 500 g/Ha, 100=total damage to plant, 0=no damage to plant, read-out: Control of weed species after post-emergence application, SETFA.

In the case of `COP(=O)(C[n+]1ccc(-c2ncccn2)cn1)OC.O=S(=O)([O-])C(F)(F)F` [Compound A238, 1-(dimethoxyphosphorylmethyl)-4-pyrimidin-2-yl-pyridazin-1-ium trifluoromethanesulfonate], the “Control of weed species after post-emergence application, AMAPA (100=total damage to plant; 0=no damage to plant)” value in assay [1] (setting [7]) is given as 50. In addition, the “Control of weed species after post-emergence application, CHEAL (100=total damage to plant; 0=no damage to plant)” value in assay [2] (setting [7]) amounted to 20. The “Control of weed species after post-emergence application, DIGSA (100=total damage to plant; 0=no damage to plant)” value in assay [3] (setting [7]) was 50. Further, the “Control of weed species after post-emergence application, ECHCG (100=total damage to plant; 0=no damage to plant)” value in assay [4] (setting [7]) was determined as 40. For the same molecule, in the assay with Eleusine indica (ELEIN) (setting [7]), the “Control of weed species after post-emergence application, ELEIN (100=total damage to plant; 0=no damage to plant)” value amounted to 30. The “Control of weed species after post-emergence application, EPHHL (100=total damage to plant; 0=no damage to plant)” value in assay [5] (setting [7]) is on record as 50. In [6] (setting [7]), the “Control of weed species after post-emergence application, IPOHE (100=total damage to plant; 0=no damage to plant)” value is listed as 40. Also, in the assay on Lolium perenne (LOLPE) (setting [7]), the “Control of weed species after post-emergence application, LOLPE (100=total damage to plant; 0=no damage to plant)” value is given as 10. Also, in the assay on Setaria faberi (SETFA) (setting [7]), the “Control of weed species after post-emergence application, SETFA (100=total damage to plant; 0=no damage to plant)” value is given as 50.
Take `N[C@@H](C[n+]1ccc(-c2ncccn2)cn1)C(=O)O` [Compound A208, [(1S)-1-carboxy-2-(4-pyrimidin-2-ylpyridazin-1-ium-1-yl)ethyl]ammonium 2,2,2-trifluoroacetate]: the pest or weed control at 500 g/ha was 100% in [1] (setting [8]); 80% in assay [2] (setting [9]); 40% in assay [3] (setting [10]); 30% in assay [4] (setting [11]); 60% in the assay on Eleusine indica (ELEIN) (setting [12]); 50% in [5] (setting [13]). Also, the pest or weed control at 500 g/ha in [6] (setting [14]) was determined as 20%; in the assay with Lolium perenne (LOLPE) (setting [15]), 10%; with Setaria faberi (SETFA) (setting [16]), 60%.
In the case of `O=C(O)CC[n+]1ccc(-c2cnc(C(F)(F)F)cn2)cn1` [Compound A121], the pest or weed control at 500 g/ha was determined as 100% in assay [1] (setting [17]); 80% in assay [2] (setting [18]); 40% in assay [3] (setting [19]); 40% in assay [4] (setting [20]); 20% in the assay on Eleusine indica (ELEIN) (setting [21]); 80% in assay [5] (setting [22]). Also, the pest or weed control at 500 g/ha in assay [6] (setting [23]) is 20%; in the assay on Lolium perenne (LOLPE) (setting [24]), 30%; with Setaria faberi (SETFA) (setting [25]) it was 30%.
As to `O=S(=O)([O-])CC[n+]1ccc(-c2cccc(C(F)(F)F)n2)cn1` [Compound A74], the pest or weed control at 500 g/ha in assay [1] (setting [17]) came out at 60%; in assay [2] (setting [18]), 30%; in [3] (setting [19]), 50%; in assay [4] (setting [20]) it was 60%; with Eleusine indica (ELEIN) (setting [21]) it was 80%; in [5] (setting [22]), 60%. For the same molecule, the pest or weed control at 500 g/ha in assay [6] (setting [23]) was found to be 50%; in the assay on Lolium perenne (LOLPE) (setting [24]), 60%; in the assay on Setaria faberi (SETFA) (setting [25]), 80%.
For the molecule `O=S(=O)([O-])CC[n+]1ccc(-c2ncc(C3CC3)cn2)cn1` [Compound A34], the pest or weed control at 500 g/ha in [1] (setting [17]) is 100%; in [2] (setting [18]) it was 70%; in assay [3] (setting [19]) it was 60%; in assay [4] (setting [20]), 30%; in the assay with Eleusine indica (ELEIN) (setting [21]), 90%; in [5] (setting [22]), 70%. For the same molecule, the figures for the pest or weed control at 500 g/ha (in [6] (setting [23]); in the assay with Lolium perenne (LOLPE) (setting [24]); with Setaria faberi (SETFA) (setting [25])) were 70%, 60% and 70%, respectively.
Turning to `Cc1cccnc1-c1cc[n+](CCS(=O)(=O)[O-])nc1` [Compound A66], the pest or weed control at 500 g/ha was determined as 40% in assay [1] (setting [17]); 20% in assay [2] (setting [18]); 30% in assay [3] (setting [19]); 50% in assay [4] (setting [20]); 40% with Eleusine indica (ELEIN) (setting [21]); 50% in assay [5] (setting [22]). Also, the pest or weed control at 500 g/ha in [6] (setting [23]) was 40%; with Lolium perenne (LOLPE) (setting [24]), 50%; in the assay with Setaria faberi (SETFA) (setting [25]), 60%.
Turning to `Cc1c[n+](CCS(=O)(=O)[O-])ncc1-c1ncccn1` [Compound A87], the pest or weed control at 500 g/ha in [1] (setting [17]) stood at 50%; in assay [2] (setting [18]), 30%; in assay [3] (setting [19]) it was 70%; in assay [4] (setting [20]) it was 70%; with Eleusine indica (ELEIN) (setting [21]) it was 60%; in assay [5] (setting [22]) it was 50%. The pest or weed control at 500 g/ha was 40% in [6] (setting [23]), 70% in the assay on Lolium perenne (LOLPE) (setting [24]) and 70% in the assay with Setaria faberi (SETFA) (setting [25]).
Take `O=C(O)CC[n+]1ccc(-c2ncccc2C(F)(F)F)cn1` [Compound A128]: the pest or weed control at 500 g/ha was 30% in assay [1] (setting [17]); 10% in assay [2] (setting [18]); 30% in [3] (setting [19]); 30% in assay [4] (setting [20]); 50% in the assay with Eleusine indica (ELEIN) (setting [21]); 0% in assay [5] (setting [22]). Further, the values for the pest or weed control at 500 g/ha (in assay [6] (setting [23]); in the assay on Lolium perenne (LOLPE) (setting [24]); in the assay with Setaria faberi (SETFA) (setting [25])) were 0%, 40% and 30%, respectively.
For the molecule `COc1cc(OC)nc(-c2cc[n+](CCC(=O)[O-])nc2)n1` [Compound A76], the pest or weed control at 500 g/ha in assay [1] (setting [17]) came to 30%; in assay [2] (setting [18]) it was 20%; in assay [3] (setting [19]), 20%; in assay [4] (setting [20]) it was 30%; with Eleusine indica (ELEIN) (setting [21]) it was 30%; in [5] (setting [22]), 30%. Besides, the values for the pest or weed control at 500 g/ha (in [6] (setting [23]); in the assay on Lolium perenne (LOLPE) (setting [24]); with Setaria faberi (SETFA) (setting [25])) were 20%, 30% and 40%, respectively.
For the molecule `Cc1cc(-c2ncccn2)cn[n+]1CCS(=O)(=O)[O-]` [Compound A212, 2-(6-methyl-4-pyrimidin-2-yl-pyridazin-1-ium-1-yl)ethanesulfonate], the pest or weed control at 500 g/ha amounted to 100% in assay [1] (setting [8]); 100% in assay [2] (setting [9]); 90% in [3] (setting [10]); 70% in assay [4] (setting [11]); 90% in the assay with Eleusine indica (ELEIN) (setting [12]); 100% in [5] (setting [13]). Further, the pest or weed control at 500 g/ha in assay [6] (setting [14]) came out at 30%; in the assay with Lolium perenne (LOLPE) (setting [15]), 70%; in the assay with Setaria faberi (SETFA) (setting [16]), 80%.
For the molecule `Cc1cc(Cl)cnc1-c1cc[n+](CCC(=O)O)nc1` [Compound A156], the pest or weed control at 500 g/ha in [1] (setting [8]) is 30%; in assay [2] (setting [9]) it was 50%; in [3] (setting [10]), 20%; in assay [4] (setting [11]) it was 10%; with Eleusine indica (ELEIN) (setting [12]), 20%; in assay [5] (setting [13]), 50%. The pest or weed control at 500 g/ha in assay [6] (setting [14]) was found to be 10%; in the assay with Lolium perenne (LOLPE) (setting [15]) it was 0%; with Setaria faberi (SETFA) (setting [16]), 20%.
